Results from ChEMBL document CHEMBL1134620, “Synthesis of potential antidipsotropic isoflavones: inhibitors of the mitochondrial monoamine oxidase-aldehyde dehydrogenase pathway” (J Med Chem, 2001).

Legend:
[1] = system: Monoamine oxidase (Mesocricetus auratus); experiment: Inhibition of hamster liver mitochondrial monoamine oxidase MAO
[2] = system: Aldehyde dehydrogenase, mitochondrial (Mesocricetus auratus); experiment: Inhibition of hamster liver aldehyde dehydrogenase ALDH-2; No inhibition uM
[3] = molecular target: Monoamine oxidase (Mesocricetus auratus)
[4] = molecular target: Aldehyde dehydrogenase, mitochondrial (Mesocricetus auratus); experiment: Inhibition of hamster liver aldehyde dehydrogenase ALDH-2

Structure (SMILES) | NI [1] | NI [2] | IC50 [3] | also measured
CCOC(=O)C(C)Oc1ccc(-c2coc3cc(OC(C)C(=O)OCC)ccc3c2=O)cc1 (stereo not given) | No inhibition | No inhibition |  | 
C=CCCCCOc1ccc(-c2coc3cc(OCCCCC=C)ccc3c2=O)cc1 | No inhibition | No inhibition |  | 
CC(C)Oc1ccc2c(=O)c(-c3ccc(O)cc3)coc2c1 |  |  | 0.2 µM | 
O=c1c(-c2ccc(O)cc2)coc2cc(OCCCCCCBr)ccc12 |  |  |  | IC50 [4]: 0.3 µM
CCOC(=O)CCCCOc1ccc(-c2coc3cc(OCCCCC(=O)OCC)ccc3c2=O)cc1 | No inhibition | No inhibition |  | 
COc1cc2ccc(=O)oc2cc1OC [SCOPARONE] | No inhibition | No inhibition |  | 
CCOC(=O)CCCCCOc1ccc2c(=O)c(-c3ccc(O)cc3)coc2c1 |  |  | 5.3 µM | 
O=C(O)CCCCCOc1ccc2c(=O)cc(-c3ccc(O)cc3)oc2c1 |  |  | 7 µM | 
CCCCCCCCCCCCOc1ccc(-c2coc3cc(OCCCCCCCCCCCC)ccc3c2=O)cc1 | No inhibition | No inhibition |  | 
O=c1c(-c2ccc(OCCCCCCCCCO)cc2)coc2cc(OCCCCCCCCCO)ccc12 | No inhibition | No inhibition |  | 
NCCCCOc1ccc2c(=O)c(-c3ccc(O)cc3)coc2c1 |  |  | > 9 µM | 
NCCCCCCOc1ccc2c(=O)c(-c3ccc(O)cc3)coc2c1 |  |  | >> 9 uM | 
O=c1c(-c2ccc(O)cc2)coc2cc(OCCCCCCCCCO)ccc12 |  |  | > 9 µM | 
O=c1c(-c2ccc(O)cc2)coc2cc(OCCCCCCO)ccc12 |  |  | > 9 µM | 
CCCCCCC(Oc1ccc2c(=O)c(-c3ccc(O)cc3)coc2c1)C(=O)OCC (stereo not given) |  |  | >> 9 uM | 
CCCCCCOc1ccc(-c2coc3cc(OCCCCCC)ccc3c2=O)cc1 | No inhibition | No inhibition |  | 
CCOC(=O)CCCCOc1ccc2c(=O)c(-c3ccc(O)cc3)coc2c1 |  |  | > 9 µM | 
O=C(O)CCCCOc1ccc2c(=O)c(-c3ccc(O)cc3)coc2c1 |  |  | 5 µM | 
O=c1c(-c2ccc(O)cc2)coc2cc(OCCCBr)ccc12 |  |  |  | IC50 [4]: 0.26 µM
O=C(O)CCCCCCCOc1ccc2c(=O)c(-c3ccc(O)cc3)coc2c1 |  |  | 6.5 µM | 
CCCCC(Oc1ccc2c(=O)c(-c3ccc(O)cc3)coc2c1)C(=O)OCC (stereo not given) |  |  | >> 9 uM | 
O=c1c(-c2ccc(O)cc2)coc2cc(OCCCCBr)ccc12 |  |  |  | IC50 [4]: 0.27 µM
C=CCCCCOc1ccc2c(=O)c(-c3ccc(O)cc3)coc2c1 |  |  | 5 µM | 
CCOC(=O)CCCCCOc1ccc(-c2coc3cc(OCCCCCC(=O)OCC)ccc3c2=O)cc1 | No inhibition | No inhibition |  | 
O=C(O)COc1ccc2c(=O)c(-c3ccc(O)cc3)coc2c1 |  |  | >> 9 uM | 
CC(C)Oc1ccc(-c2coc3cc(OC(C)C)ccc3c2=O)cc1 | No inhibition | No inhibition |  | 
